This is an account of results in patent US12441706B2, “Protein degradation agent compound preparation method and application” (SHANGHAI JEMINCARE PHARMACEUTICALS CO., LTD., priority 2019, dated 2025).

SMILES strings stand for the structures.

The test system of one assay is LNcap FGC cells. Kind of assay: Inhibition of proliferation of LNcap FGC cells (Cell Titer Glo, 6 days). Conditions: Homo sapiens, LNCaP, 144 h. The class given is cell-based. As to the method:
Tumor cell line LNcap FGC (ATCC catalog number CRL-1740) was cultured in RPMI 1640 (Gibco catalog number 11875-093) and DMEM (Gibco catalog number. 11965-092) medium containing 10% FBS (Gibco catalog number 10099-141C), respectively.
LNcap FGC cells were inoculated in a 384-well plate (Perkin Elmer catalog number 6007460) at a cell density of 400 cells/well in a volume of 20 μL/well and incubated overnight in a carbon dioxide incubator (Thermo). The prepared compound solutions of different concentrations were added in a volume of 5 μL/well. The corresponding vehicle control was set at the same time. After being cultured in the incubator for 6 days, the cell plate and the contents were equilibrated to room temperature, and 25 μL of Cell Titer Glor (Promega catalog number G7573) was added to each well, shook and mixed well, incubated in dark for 10-30 minutes, and the signal values were detected with Envision microplate reader (PerkinElmer).
The percentage inhibition rate of compound-treated wells was calculated from the vehicle control wells on the plate, and the percentage inhibition rate data corresponding to different concentrations were fitted by GraphPad prism, and the IC50 values were calculated by 4-parameter nonlinear logic formula.

In a further assay the target is T1, androgen receptor (Homo sapiens, UniProt P10275, T878A).
T1 construct: endogenous in cells; host or cells: LNCaP cells
T1 sequence (P10275 1-920 T878A): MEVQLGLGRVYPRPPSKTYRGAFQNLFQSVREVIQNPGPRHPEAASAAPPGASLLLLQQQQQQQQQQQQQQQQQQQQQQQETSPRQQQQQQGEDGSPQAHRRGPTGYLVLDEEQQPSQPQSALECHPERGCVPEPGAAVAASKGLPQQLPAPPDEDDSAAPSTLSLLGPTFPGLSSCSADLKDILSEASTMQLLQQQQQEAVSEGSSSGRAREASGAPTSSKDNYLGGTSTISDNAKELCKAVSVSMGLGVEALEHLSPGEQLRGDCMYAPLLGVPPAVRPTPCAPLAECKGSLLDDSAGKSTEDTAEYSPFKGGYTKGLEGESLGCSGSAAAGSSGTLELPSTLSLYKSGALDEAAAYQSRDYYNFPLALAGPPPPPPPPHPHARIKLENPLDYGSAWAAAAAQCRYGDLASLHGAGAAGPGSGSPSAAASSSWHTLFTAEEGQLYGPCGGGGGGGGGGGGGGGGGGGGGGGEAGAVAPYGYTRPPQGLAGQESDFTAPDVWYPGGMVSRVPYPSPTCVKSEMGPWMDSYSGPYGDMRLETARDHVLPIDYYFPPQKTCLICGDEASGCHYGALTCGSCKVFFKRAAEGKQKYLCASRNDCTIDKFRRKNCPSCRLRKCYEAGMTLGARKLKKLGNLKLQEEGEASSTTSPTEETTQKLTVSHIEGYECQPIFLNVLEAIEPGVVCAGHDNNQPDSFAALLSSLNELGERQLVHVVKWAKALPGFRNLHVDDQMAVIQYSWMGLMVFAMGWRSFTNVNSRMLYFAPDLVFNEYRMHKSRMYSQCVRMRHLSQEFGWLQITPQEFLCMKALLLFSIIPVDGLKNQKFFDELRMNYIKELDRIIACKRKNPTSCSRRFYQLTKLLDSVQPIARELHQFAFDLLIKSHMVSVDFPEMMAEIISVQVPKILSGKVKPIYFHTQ
Kind of assay: In-Cell-Western determination of androgen receptor degradation in LnCaP cells. Conditions: for Dmax: LNCaP; for DC50: concentration for half of the maximal degradation of AR in LnCaP cells, 24 hours treatment. The class given is cell-based. How it is done:
The determination evaluated the properties of the compounds in Lncap cells. Intracellular androgen receptor was determined by In-Cell-Western according to the determination steps described below.
In poly-D-Lysin pretreated 96-well cell culture plate (Corning 3599), LNcap cells were divided into 100 μL/well volume, and inoculated with 30,000 cells/well in LNcap cell assay medium [DMEM containing phenol red (Gibco catalog number: 11995065); fetal bovine serum FBS (Gibco catalog number: 10099141C)]. Cells were cultured for at least two days.
1. First treated cells with compound. Compounds were gradient diluted with DMSO and cell culture medium, so that DMSO contained in cell culture plates was diluted to 0.5% —polypropylene plates were used according to the following protocol: (1)(i) 200× stock plate in DMSO was prepared; (ii) 10 mM stock solution was diluted 1:4 with DMSO (10 μL stock solution+40 μL DMSO)=2000 μM, then entered into row 2; (iii) 1:4 (10 μL protac+40 μL DMSO) gradient dilution was performed from row 2 to row 9, and row 1 was reserved for […] reference compound and row 10 for DMSO. (iv) A total of 8 concentrations (final concentrations on the 200× plate were 2000 μM, 400 μM and 80 μM, etc.). (2) (i) 3× stock solution was prepared in the medium. (ii) 3 μL of 200× stock solution was transferred to 197 µL of culture medium (using 12-channel pipette, from line 1 to line 10), i.e. 3× stock solution plate. (iii) The stock solution plate was mixed evenly. (3) (i) The culture medium of […] cells was replaced with fresh culture medium, 100 μL volume culture medium. (ii) The well-mixed 3× stock solution was transferred to the cell culture plate (using a 12-channel pipette, and 50 μL of stock solution was transferred from line 1 to line 10). (iii) Cells were cultured for 24 hours.
2. The expression level of intracellular androgen receptor after compound treatment was […] and determined according to the following method.
(1)(i) Equal volume of 8% paraformaldehyde was added to the cell culture plate for cell fixation. The fixing solution in the cell plate was discarded and washed three times with PBS. (ii) Triton solution (1:1000 dilution of the stock solution) was prepared. The solution in the cell plate was discarded, and 200 μL of Triton diluent was added into each well. (iii) 2×blocking solution (1:4 dilution of 10×blocking stock solution) was prepared. The solution in the cell plate was discarded, and 100 μL of 2×blocking solution was added into each well. (iv) Primary antibody solution (Androgen receptor Rabbbit mAb, Cell Signaling Technology catalog number: 5153; 1:1000 dilution) was prepared. The solution in the cell plate was discarded, 100 μL volume of primary antibody diluent was added to each well, and incubated at 4° C. overnight. (v) The primary antibody solution was discarded and the cell plate was washed with 1×Wash buffer. (vi) Secondary antibody solution (GOAT Antirabbit IgG (H+L), HRP, Thermo catalog number: 31460; 1:5000 dilution) was prepared, and 100 μL volume of secondary antibody dilution was added to each well for incubation. (vii) The secondary antibody solution in the cell plate was discarded and the cell plate was washed with 1×Wash buffer. (viii) TMB chromogenic solution (BD catalog number: 550534) was prepared, and 100 μL chromogenic solution was added into each well. (ix) 50 μL volume of stop solution (BD catalog number: 550534) was added to each well. (x) The absorption values at OD 450 nm and 570 nm were read though EnVision. (2) (i) Normalized analysis was performed on the number of cells in each well. The solution in the cell plate was discarded, and washed with wash buffer for three times. (ii) Janus dilution (1:3 dilution) was prepared. (iii) 50 μL volume diluent was added to each well for incubation. (iv) The solution in the plate was discarded and washed with deionized water. […]

In the assay with LNcap FGC cells, `CC1(C)C(=O)N(c2ccc(C#N)c(C(F)(F)F)c2)c2ccc(-c3ccc(N4CC(CN5CCN(c6ccc7c(c6)C(=O)N(C6CCC(=O)NC6=O)C7=O)CC5)C4)cc3)cc21` (stereo not drawn) [Compound 3] showed an Emax of 93% and an IC50 of 54.8 nM. At androgen receptor, this compound came in with a Dmax of 89% and a DC50 of 87.1 nM.
Take `CC1(C)C(=O)N(c2ccc(C#N)c(Cl)c2)c2ccc(-c3ccc(N4CC(CN5CCN(c6ccc7c(c6)C(=O)N(C6CCC(=O)NC6=O)C7=O)CC5)C4)nc3F)cc21` (stereo not drawn) [Compound 14]: in the assay with LNcap FGC cells, the Emax worked out at 100% and half-maximal inhibition (IC50) required 60.6 nM. At androgen receptor, the maximal degradation (Dmax) is 93% and the DC50 turned out to be 66.3 nM.
As for `CC1(C)C(=O)N(c2ccc(C#N)c(Cl)c2)c2ccc(-c3ccc(N4CC(CN5CCN(c6ccc7c(c6)C(=O)N(C6CCC(=O)NC6=O)C7=O)CC5)C4)cc3)cc21` (stereo not drawn) [Compound 1], in the assay with LNcap FGC cells, the Emax was found to be 91% and the IC50 came out at 66.1 nM. At androgen receptor, this compound returned a Dmax of 82% and a DC50 of 90.3 nM.
